This note sets out measurements from patent publication EP0417790B1, “S-triazolo[3,4-i]purine derivatives” (Kyowa Hakko Kogyo Co., Ltd., priority 1989, dated 1991).

The subject of series [1] is male dd-mice. As to the kind of experiment: Acute toxicity. In kind it is in vivo. To be noted: Minimum lethal dose, oral, mortality observed for seven days. As to the method: The compounds were orally administrated to male dd-mice weighing 20 ± 1 g. Minimum lethal dose (MLD) was determined by observing the mortality for seven days after the administration.
Series [2] relates to Wistar male rats. As to the kind of experiment: Diuretic activity. Type of series: in vivo. The following applies: Rattus norvegicus, po, 25 mg/kg orally, urine taken for 6 hours. As to the method:
Wistar male rats weighing 150 to 300 g were used after fasting for 18 hours. […] The test was performed using 3 groups per test compound, and each group consists of 3 animals. The urine was metered by a measuring cylinder and electrolytes (Na^+ and K^+) in the urine were analyzed by flame photometer (model […]: Hitachi Ltd.). Parameters in Table 3 are represented by relative value for control.

[3] abbreviates: relative value for control (1.00), read-out: Na^+/K^+.
[4] abbreviates: relative value for control (100), read-out: Excretion of K^+.
The mark [5] stands for this setting: relative value for control (100), read-out: Excretion of Na^+.
The mark [6] stands for this setting: relative value for control (100), read-out: Urine volume.

The structures appear in SMILES notation. Where two headings read alike, the source gives them in different places. A value given as a limit tells only on which side of the number the result lay.

For `CCCn1c(=O)n2c(-c3ccccc3OC)nnc2c2c1ncn2C` [Compound 7, 6,9-Dihydro-3-(2-methoxyphenyl)-9-methyl-6-n-propyl-5H-1,2,4-triazolo[3,4-i]purin-5-one], the MLD in series [1] is given as 300 mg/kg. For the same compound, the response vs control in vivo at 25 mg/kg in series [2] (setting [3]) came out at 133%; in series [2] (setting [4]), 122%; in series [2] (setting [5]) it was 162%; in series [2] (setting [6]) it was 173%.

With `CCCn1c(=O)n2c(-c3ccccc3N)nnc2c2c1ncn2C` [Compound 13, 3-(2-Aminophenyl)-6,9-dihydro-9-methyl-6-n-propyl-5H-1,2,4-triazolo[3,4-i]purin-5-one], the MLD in series [1] is reported as >300 mg/kg.

For `CCCn1c(=O)n2c(-c3ccc(C(F)(F)F)cc3)nnc2c2c1ncn2C` [Compound 15, 6,9-Dihydro-9-methyl-6-n-propyl-3-(4-trifluoromethylphenyl)-5H-1,2,4-triazolo[3,4-i]purin-5-one], the MLD in series [1] was >300 mg/kg.

Take `CCCn1c(=O)n2c(-c3ccc([N+](=O)[O-])cc3)nnc2c2c1ncn2C` [Compound 16, 6,9-Dihydro-9-methyl-3-(4-nitrophenyl)-6-n-propyl-5H-1,2,4-triazolo[3,4-i]purin-5-one]: the MLD in series [1] was >300 mg/kg. Further, the response vs control in vivo at 25 mg/kg in series [2] (setting [3]) was 111%; in series [2] (setting [4]), 175%; in series [2] (setting [5]), 194%; in series [2] (setting [6]), 170%.

With `CCCn1c(=O)n2c(-c3ccc(F)cc3)nnc2c2c1ncn2C` [Compound 17, 6,9-Dihydro-3-(4-fluorophenyl)-9-methyl-6-n-propyl-5H-1,2,4-triazolo[3,4-i]purin-5-one], the MLD in series [1] was >300 mg/kg. Also, the response vs control in vivo at 25 mg/kg in series [2] (setting [3]) was found to be 142%; in series [2] (setting [4]) it was 134%; in series [2] (setting [5]) it was 179%; in series [2] (setting [6]), 178%.

Take `CCCn1c(=O)n2c(-c3ccc(N(C)C)cc3)nnc2c2c1ncn2C` [Compound 18, 6,9-Dihydro-3-(4-dimethylaminophenyl)-9-methyl-6-n-propyl-5H-1,2,4-triazolo[3,4-i]purin-5-one]: the MLD in series [1] is listed as >300 mg/kg. In addition, the response vs control in vivo at 25 mg/kg in series [2] (setting [3]) was found to be 109%; in series [2] (setting [4]), 129%; in series [2] (setting [5]) it was 141%; in series [2] (setting [6]), 155%.

On to `CCCn1c(=O)n2c(-c3cc(Cl)ccc3Cl)nnc2c2c1ncn2C` [Compound 19, 3-(2,5-Dichlorophenyl)-6,9-dihydro-9-methyl-6-n-propyl-5H-1,2,4-triazolo[3,4-i]purin-5-one], for which the MLD in series [1] is given as >300 mg/kg.

On to `CCCn1c(=O)n2c(-c3ccc(Cl)c(Cl)c3)nnc2c2c1ncn2C` [Compound 20, 3-(3,4-Dichlorophenyl)-6,9-dihydro-9-methyl-6-n-propyl-5H-1,2,4-triazolo[3,4-i]purin-5-one], for which, in series [1], the MLD is listed as >300 mg/kg.

For the compound `CCCn1c(=O)n2c(-c3ccc(OC)c(OC)c3)nnc2c2c1ncn2C` [Compound 21, 6,9-Dihydro-3-(3,4-dimethoxyphenyl)-9-methyl-6-n-propyl-5H-1,2,4-triazolo[3,4-i]purin-5-one], in series [1], the MLD was >300 mg/kg.

In the case of `CCCn1c(=O)n2c(-c3ccc(C(=O)OC)cc3)nnc2c2c1ncn2C` [Compound 22, 6,9-Dihydro-3-(4-methoxycarbonylphenyl)-9-methyl-6-n-propyl-5H-1,2,4-triazolo[3,4-i]purin-5-one], the MLD in series [1] is recorded as >300 mg/kg.

Turning to `CCCn1c(=O)n2c(-c3ccc(C(=O)O)cc3)nnc2c2c1ncn2C` [Compound 23, 6,9-Dihydro-3-(4-carboxyphenyl)-9-methyl-6-n-propyl-5H-1,2,4-triazolo[3,4-i]purin-5-one], the MLD in series [1] is reported as >300 mg/kg.

For the compound `CCCn1c(=O)n2c(-c3ccccc3)nnc2c2[nH]c(C3CCCC3)nc21` [Compound 26, 8-Cyclopentyl-6,9-dihydro-6-n-propyl-3-phenyl-5H-1,2,4-triazolo[3,4-i]purin-5-one], in series [1], the MLD is given as >300 mg/kg.

With `CCCn1c(=O)n2c(C)nnc2c2[nH]c(C3CCCC3)nc21` [Compound 27, 8-Cyclopentyl-6,9-dihydro-3-methyl-6-n-propyl-5H-1,2,4-triazolo[3,4-i]purin-5-one], the MLD in series [1] was >300 mg/kg.

`Cn1cnc2c1c1nnc(-c3ccccc3)n1c(=O)n2Cc1ccccc1` [Compound 28, 6-Benzyl-6,9-dihydro-9-methyl-3-phenyl-5H-1,2,4-triazolo-[3,4-i]purin-5-one]: in series [1], the MLD is given as >300 mg/kg.

For the compound `Cn1cnc2c1c1nnc(-c3ccccc3)n1c(=O)n2-c1ccccc1` [Compound 29, 6,9-Dihydro-3,6-diphenyl-9-methyl-5H-1,2,4-triazolo[3,4-i]-purin-5-one], the MLD in series [1] is given as >300 mg/kg. In addition, the response vs control in vivo at 25 mg/kg in series [2] (setting [3]) was determined as 141%; in series [2] (setting [4]), 110%; in series [2] (setting [5]), 155%; in series [2] (setting [6]), 170%.

Consider `CCCn1c(=O)n2c(-c3cccnc3)nnc2c2[nH]cnc21` [Compound 32, 6,9-Dihydro-6-n-propyl-3-(3-pyridyl)-5H-1,2,4-triazolo[3,4-i]purin-5-one], for which the response vs control in vivo at 25 mg/kg in series [2] (setting [3]) came out at 152%; in series [2] (setting [4]), 129%; in series [2] (setting [5]) it was 196%; in series [2] (setting [6]) it was 195%.

Consider `CCCn1c(=O)n2c(-c3cccs3)nnc2c2[nH]cnc21` [Compound 33, 6,9-Dihydro-6-n-propyl-3-(2-thienyl)-5H-1,2,4-triazolo[3,4-i]purin-5-one], for which the MLD in series [1] is recorded as >300 mg/kg.

`CCCn1c(=O)n2cnnc2c2c1ncn2C` [Compound 36, 6,9-Dihydro-9-methyl-6-n-propyl-5H-1,2,4-triazolo[3,4-i]purin-5-one] came in with an MLD in series [1] of 300 mg/kg.

Consider `Cc1nnc2c3[nH]cnc3n(Cc3ccccc3)c(=O)n12` [Compound 37, 6-Benzyl-6,9-dihydro-3-methyl-5H-1,2,4-triazolo[3,4-i]purin-5-one], for which the MLD in series [1] is reported as >300 mg/kg.

Consider `CCCn1c(=O)n2c(-c3ccncc3)nnc2c2c1ncn2Cc1ccccc1` [Compound 39, 9-Benzyl-6,9-dihydro-6-n-propyl-3-(4-pyridyl)-5H-1,2,4-triazolo[3,4-i]purin-5-one], for which the MLD in series [1] is listed as >300 mg/kg. Also, the response vs control in vivo at 25 mg/kg in series [2] (setting [3]) was determined as 127%; in series [2] (setting [4]) it was 145%; in series [2] (setting [5]) it was 184%; in series [2] (setting [6]), 185%.

For the compound `CCCn1cnc2c1c1nnc(-c3ccncc3)n1c(=O)n2CCC` [Compound 40Sa], in series [1], the MLD came out at 100 mg/kg. Besides, the response vs control in vivo at 25 mg/kg in series [2] (setting [3]) was found to be 97%; in series [2] (setting [4]) it was 136%; in series [2] (setting [5]), 132%; in series [2] (setting [6]), 155%.

As to `Cn1cnc2c1c1n[nH]c(=O)n1c(=O)n2Cc1ccccc1` [Compound 42, 6-Benzyl-9-methyl-2,5,6,9-tetrahydro-3H-1,2,4-triazolo[3,4-i]purin-3,5-dione], in series [1], the MLD is listed as >300 mg/kg.

As to `CCCn1c(=O)n2c(=O)[nH]nc2c2[nH]c(C3CCCC3)nc21` [Compound 43, 8-Cyclopentyl-6-n-propyl-2,5,6,9-tetrahydro-3H-1,2,4-triazolo[3,4-i]purin-3,5-dione], the MLD in series [1] was >300 mg/kg.

On to `CCCn1c(=O)n2c(=S)[nH]nc2c2c1ncn2C` [Compound 46, 9-Methyl-6-n-propyl-2,2,6,9-tetrahydro-3-thioxo-5H-1,2,4-triazolo[3,4-i]purin-5-one], for which the MLD in series [1] was >300 mg/kg.

For the compound `CCCn1c(=O)n2c(=O)n(CC)nc2c2c1ncn2C` [Compound 48, 2-Ethyl-9-methyl-6-n-propyl-2,5,6,9-tetrahydro-3H-1,2,4-triazolo[3,4-i]purin-2,5-dione], the MLD in series [1] is listed as >300 mg/kg.

For the compound `CCn1nc2c3c(ncn3C)n(Cc3ccccc3)c(=O)n2c1=O` [Compound 49, 6-Benzyl-2-ethyl-9-methyl-2,5,6,9-tetrahydro-3H-1,2,4-triazolo[3,4-i]purin-2,5-dione], the response vs control in vivo at 25 mg/kg in series [2] (setting [3]) was determined as 161%; in series [2] (setting [4]) it was 173%; in series [2] (setting [5]) it was 279%; in series [2] (setting [6]) it was 300%.

As for `NS(=O)(=O)c1cc(C(=O)O)c(NCc2ccco2)cc1Cl` [Furosemide, reference compound], the response vs control in vivo at 25 mg/kg in series [2] (setting [3]) turned out to be 105%.
